Test results taken from PubChem BioAssay (NCI).
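48-hour exposure; five concentrations; linearly interpolated endpoints. The concentration for 50% growth inhibition is given as GI50. At the TGI there is no net growth.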

What was measured:
Experiment in all cases: NCI-60 cell line screen, 48 h
UO-31 renal = tested on: UO-31 renal
HCT-116 colon = tested on: HCT-116 colon
RXF 393 renal = tested on: RXF 393 renal
CAKI-1 renal = tested on: CAKI-1 renal
HT29 colon = tested on: HT29 colon
UACC-257 melanoma = tested on: UACC-257 melanoma
COLO 205 colon = tested on: COLO 205 colon
UACC-62 melanoma = tested on: UACC-62 melanoma
HCC-2998 colon = tested on: HCC-2998 colon
A549 NSCLC = tested on: A549 NSCLC
NCI-H460 lung = tested on: NCI-H460 lung
OVCAR-5 ovarian = tested on: OVCAR-5 ovarian
SNB-75 CNS = tested on: SNB-75 CNS
T-47D breast = tested on: T-47D breast
MCF7 breast = tested on: MCF7 breast
HOP-62 NSCLC = tested on: HOP-62 NSCLC
MALME-3M melanoma = tested on: MALME-3M melanoma
SK-OV-3 ovarian = tested on: SK-OV-3 ovarian
HCT-15 colon = tested on: HCT-15 colon

SMILES | TGI (UO-31 renal) [µM] | TGI (HCT-116 colon) [µM] | TGI (RXF 393 renal) [µM] | TGI (CAKI-1 renal) [µM] | TGI (HT29 colon) [µM] | TGI (UACC-257 melanoma) [µM] | TGI (COLO 205 colon) [µM] | TGI (UACC-62 melanoma) [µM] | TGI (HCC-2998 colon) [µM] | TGI (A549 NSCLC) [µM] | TGI (NCI-H460 lung) [µM] | TGI (OVCAR-5 ovarian) [µM] | TGI (SNB-75 CNS) [µM] | TGI (T-47D breast) [µM] | TGI (MCF7 breast) [µM] | TGI (HOP-62 NSCLC) [µM] | TGI (MALME-3M melanoma) [µM] | TGI (SK-OV-3 ovarian) [µM] | TGI (HCT-15 colon) [µM] | GI50 (COLO 205 colon) [µM]
CCCCCCCC(=O)OC[n+]1ccc(-c2c(COC(=O)NC(C)C)c(COC(=O)NC(C)C)c3n2CCC3)cc1 | > 100 | > 71.4 | 49.9 | 62.7 | > 100 | > 100 | > 100 | 33.5 | > 100 | > 100 | > 100 | > 100 | > 100 | > 100 | > 100 | > 100 | > 90.6 | > 100 | > 100 | –
CO[C@H]1O[C@@H]2CO[C@@H](c3ccccc3)O[C@H]2[C@@H]2CC=CCC[C@]12O | > 100 | > 100 | > 100 | > 100 | > 100 | > 100 | > 100 | > 100 | 51.7 | > 100 | > 100 | > 100 | > 100 | > 100 | > 100 | > 100 | 29.3 | > 100 | > 100 | –
O[C@@]1(c2cccs2)c2cccc(Cl)c2[C@](O)(c2cccs2)c2cccc(Cl)c21 | > 100 | 27.4 | 38.2 | > 100 | 35.5 | 30.3 | 38.6 | 23.8 | 32.7 | 43.7 | 34.2 | 37.6 | > 100 | > 100 | 37.2 | > 100 | 37.2 | 74.2 | 61.7 | –
Nc1nc(Cl)c(N)c(NCC2(CO)CC(Cc3ccccc3)C2)n1 (configuration not stated) | > 100 | > 100 | > 100 | > 100 | > 100 | > 86.3 | > 100 | > 100 | > 100 | > 100 | > 100 | > 100 | > 100 | > 100 | > 69.2 | > 100 | > 100 | > 100 | > 100 | –
COC(=O)Nc1nc2ccc(Oc3ccc4nc(NC(=O)OC)[nH]c4c3)cc2[nH]1 | > 100 | > 100 | > 22.8 | > 100 | > 100 | > 100 | 7.59 | > 100 | > 22.7 | > 100 | > 100 | > 100 | 2.87 | > 100 | > 100 | 45.6 | > 100 | > 100 | > 100 | –
CC1=NN(c2nc(N)nc(/C(C#N)=C/c3ccc([N+](=O)[O-])o3)n2)C(C)(C)C1 | 31.8 | 2.94 | 3.21 | 3.81 | 4.37 | 27.2 | 3.02 | 5.31 | 39.4 | 29.8 | 10.8 | 3.22 | 10.1 | 7.05 | 3.21 | 31.3 | 4.23 | > 52.3 | – | –
C#CCn1c(=O)ccn(/C(=C\C(=O)OCC)C(=O)OCC)c1=O | 26.4 | 16.5 | 4.84 | 2.4 | 4.4 | 29.5 | 3.17 | 28.3 | 35.9 | 43.8 | 7.76 | 30.9 | 39.9 | 12.7 | 9.78 | > 54.4 | 4.99 | > 59.9 | 6.63 | 1.53
CN(C)CCNc1ccc2ncnc3c2c1C(=O)c1ccccc1-3 | 12.9 | 1.71 | 2.32 | 2.01 | 2.98 | 11.5 | 15.5 | 4.92 | 2.92 | 1.73 | 5.01 | 3.42 | 6.96 | 24.7 | 2.57 | 3.25 | 2.38 | > 72.4 | 13.5 | –
Cc1nc2ccccc2c(=O)n1-c1n[nH]c2ccccc12 | > 100 | > 100 | > 100 | > 100 | > 100 | > 100 | > 100 | > 100 | > 100 | > 100 | > 100 | > 100 | > 100 | > 100 | > 100 | > 100 | > 100 | – | > 100 | –
COC(=O)C1=C(OC(=O)/C(=C/c2ccc(Cl)cc2Cl)c2ccc(Cl)cc2Cl)C(C(=O)OC)[C@@]2(O)[C@@H](C(=O)OC)[C@H](C)C[C@@H]1[C@@H]2C(=O)OC (some centres not stated) | > 100 | > 100 | > 100 | > 100 | > 100 | > 100 | > 100 | > 100 | > 100 | > 100 | > 100 | > 100 | > 100 | > 100 | > 100 | > 100 | > 100 | > 100 | > 100 | –
Oc1[nH]c2ccccc2c1N=NC(=S)N1CCCCC1 | 3.23 | 1.54 | 2.65 | 4.43 | 10.8 | – | 11.2 | 4.01 | 8.87 | 3.44 | 2.29 | 21.1 | 6.71 | 20 | 6.26 | 3.83 | 2.2 | 7.62 | 2.42 | –
CCC(C)C(C(=O)N/N=C1/SCC(=O)N1C)C(=O)N/N=C1/SCC(=O)N1C (configuration not stated) | > 100 | > 100 | > 100 | > 100 | > 100 | > 100 | > 100 | > 100 | > 100 | > 100 | > 100 | > 100 | > 100 | > 100 | > 100 | > 100 | > 100 | > 100 | > 100 | –
COc1ccc(/C(CCl)=C(\Nc2ccccc2)c2ccc(OC)c(OC)c2)cc1OC | > 100 | > 100 | > 100 | > 100 | > 100 | > 100 | > 100 | > 100 | > 100 | > 100 | > 100 | > 100 | > 100 | > 100 | > 100 | > 100 | > 100 | > 100 | > 100 | –
COc1cc(O)c2c(=O)c(OC)c(-c3ccc4c(c3)OCO4)oc2c1 | > 100 | > 100 | > 100 | > 100 | > 100 | > 100 | > 100 | > 100 | > 100 | > 100 | > 100 | > 100 | 14.9 | > 100 | > 100 | > 63.1 | > 100 | 81 | > 100 | –
OC(CC(CC(O)(C(F)(F)Cl)C(F)(F)Cl)=NNc1ccccc1)(C(F)(F)Cl)C(F)(F)Cl | – | 3.89 | 6.82 | 6.43 | > 10 | 5.24 | 3.51 | 4.95 | > 10 | > 10 | 7.85 | > 10 | 7.69 | 9.42 | 9.93 | 7.95 | 7.14 | > 10 | 9.16 | –
Clc1cc(OCc2nn3c(Cc4ccccc4)nnc3s2)ccc1OCc1nn2c(Cc3ccccc3)nnc2s1 | > 100 | > 100 | > 100 | 99.6 | > 100 | > 100 | > 100 | > 100 | > 100 | > 100 | > 100 | > 100 | 39 | 79.4 | > 100 | > 100 | > 100 | > 100 | > 100 | –
Cn1c(NN)nc(-c2ccc([N+](=O)[O-])cc2)c(C#N)c1=O | 33.8 | 25.4 | 28 | 61.6 | 28.7 | 29.1 | 47.7 | 29 | 26.5 | 43.4 | 36.4 | 42.9 | 34.7 | 30.9 | 31.9 | 27.1 | 29.7 | 28.2 | 42.4 | –
CCC(CS(=O)(=O)O)[N+](=O)[O-] (configuration not stated) | > 100 | > 100 | > 100 | > 100 | > 100 | > 100 | > 100 | > 100 | > 100 | > 100 | > 100 | > 100 | > 100 | > 100 | > 100 | > 100 | > 100 | > 100 | > 100 | –
NCC[Se][Se]CCN | 13.3 | 15.3 | 32.5 | 22.8 | 26.9 | 20.4 | 14.6 | 31.1 | 24.9 | 25.3 | 21.9 | 17.6 | 27.4 | 64.4 | 33.1 | 21.3 | 25.2 | 25.8 | 22.1 | –
CC1CC(C)[C@H](O)C([C@H](O)CC2CC(=O)N(C)C(=O)C2)C1 (some centres not stated) | > 100 | > 100 | > 100 | > 100 | > 100 | > 100 | > 100 | > 100 | > 100 | > 100 | > 100 | > 100 | > 100 | > 100 | > 100 | > 100 | > 100 | > 100 | > 100 | –
Cc1cc(C)nc(NS(=O)(=O)c2ccc(NN=c3c4ccccc4n(C)c4ccccc34)cc2)n1 | 71.7 | > 100 | 50.8 | > 100 | > 100 | > 100 | > 100 | > 100 | 89.8 | > 100 | > 100 | > 100 | 96.9 | 80.8 | 55.7 | > 100 | 91.3 | > 100 | > 100 | –
CC(=O)NC1=C(C)C(=O)c2c(nc3n2CCC3OC(=O)c2ccccc2)C1=N (configuration not stated) | 4.34 | 21.2 | 2.9 | 4 | 3.96 | 3.47 | 3.27 | 1.09 | 3.79 | 11 | 3.07 | 7.36 | 5.27 | 10.9 | 2.53 | 7.28 | 2.45 | 6.59 | 7.47 | –
CCSc1c(C)c2c(n(Cc3ccc(OC)cc3)c1=O)Cc1ccccc1C2 | > 100 | 32.5 | > 100 | > 100 | 72.2 | 44.3 | > 100 | > 100 | 41.6 | > 100 | 27.7 | > 100 | > 100 | > 100 | > 100 | > 100 | 45.7 | > 100 | > 100 | –
O=C(O)CN=C(C(=NCC(=O)O)c1ccccc1)c1ccccc1 | > 100 | > 100 | > 100 | > 100 | – | > 100 | > 100 | > 100 | > 100 | > 100 | > 100 | > 100 | > 100 | > 100 | > 100 | > 100 | > 100 | > 100 | > 100 | –
